Measurements: patent US8067447B2, “Modulators of glucocorticoid receptor, AP-1, and/or NF-κB activity and use thereof” (Bristol-Myers Squibb Company, priority 2006, dated 2011)

Key:
[1] = target: T1, human glucocorticoid receptor (Homo sapiens, UniProt P04150); test: Glucocorticoid Receptor Binding Assay (I), fluorescence polarization competitor kit (Fluormone GS Red); conditions: purified human recombinant full-length GR 2 nM, 1 nM Fluormone GS Red, FP; read-out: GR (Ki, nM) (GR Binding Assay (I))
T1 construct: purified human recombinant full-length glucocorticoid receptor (2 nM); purchased Invitrogen Part #2893
T1 sequence (P04150 1-777): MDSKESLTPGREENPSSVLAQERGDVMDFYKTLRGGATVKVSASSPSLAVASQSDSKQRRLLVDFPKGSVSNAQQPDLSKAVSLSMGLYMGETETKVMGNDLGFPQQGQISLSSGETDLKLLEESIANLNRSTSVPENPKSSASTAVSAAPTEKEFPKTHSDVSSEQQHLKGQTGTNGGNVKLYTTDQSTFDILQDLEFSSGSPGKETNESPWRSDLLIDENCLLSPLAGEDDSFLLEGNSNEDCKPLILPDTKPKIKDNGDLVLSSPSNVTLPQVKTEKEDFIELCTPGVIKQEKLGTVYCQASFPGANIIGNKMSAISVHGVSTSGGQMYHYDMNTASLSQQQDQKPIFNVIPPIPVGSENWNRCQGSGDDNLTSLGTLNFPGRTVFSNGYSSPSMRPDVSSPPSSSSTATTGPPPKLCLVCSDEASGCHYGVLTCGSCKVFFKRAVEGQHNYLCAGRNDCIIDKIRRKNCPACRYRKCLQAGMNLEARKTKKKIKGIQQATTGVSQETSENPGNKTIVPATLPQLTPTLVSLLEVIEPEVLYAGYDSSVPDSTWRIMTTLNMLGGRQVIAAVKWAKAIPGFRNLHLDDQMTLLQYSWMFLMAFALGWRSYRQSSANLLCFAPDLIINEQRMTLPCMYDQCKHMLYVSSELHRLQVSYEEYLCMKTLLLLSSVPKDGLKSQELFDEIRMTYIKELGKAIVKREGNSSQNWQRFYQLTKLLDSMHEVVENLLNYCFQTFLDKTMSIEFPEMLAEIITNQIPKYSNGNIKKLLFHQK
Protocol: Briefly, purified human recombinant full-length glucocorticoid receptor (2 nM) was mixed with fluorescently labeled glucocorticoid (1 nM Fluormone GS Red) in the presence or absence of test compound. After two hour incubation at room temperature in the dark, the fluorescence polarization (FP) of the samples was measured. […] Test compounds were analyzed in the concentration range from 8.5E-05 μM to 5 μM.

[2] = system: AP-1 induced transcriptional activity; test: Cellular Transrepressional Assay (AP-1 luciferase reporter in A549 cells, PMA-activated); format: cell-based; conditions: Homo sapiens, A549, 7 h, A549 cells with 7x AP-1 luciferase reporter, 10 ng/ml PMA, read-out: AP-1 (EC50, nM) (Cellular Transrepression Assay)
Protocol: To measure the ability of test molecules to inhibit AP-1 induced transcriptional activity an A549 cell was utilized which was stably transfected with a plasmid containing 7× AP-1 DNA binding sites (pAP-1-Luc plasmid, Stratagene Co. La Jolla, Calif.) followed by the gene for luciferase. Cells were activated with 10 ng/ml of […] (PMA) plus or minus test molecules for 7 hours. After 7 hours a luciferase reagent was added to measure luciferase enzymatic activity in the cell. After a 10 minute incubation of luciferase reagent with cells, luminescence was measured in a TopCount luminescence counter. Repression of AP-1 activity was calculated as the percentage decrease in the signal induced by PMA alone. Test molecules were analyzed in the concentration range from 0.1 nM to 40 μM. EC50s were determined by using standard curve fitting methods such as Excel fit (Microsoft Co.).

Row | Compound | Ki [1] [nM] | EC50 [2] [nM]
1 | CC(C)(Cc1ccc2c(cnn2-c2ccc(F)cc2)c1)C(=O)Nc1nncs1 [Example 32, 3-(1-(4-Fluorophenyl)-1H-indazol-5-yl)-2,2-dimethyl-N-(1,3,4-thiadiazol-2-yl)propanamide] | 84 | 4320
2 | CC(C)(C(=O)Nc1nccs1)C(c1ccc2c(cnn2-c2ccc(F)cc2)c1)C1CCCC1 (stereo not drawn) [Example 35, 3-Cyclopentyl-3-(1-(4-fluorophenyl)-1H-indazol-5-yl)-2,2-dimethyl-N-(thiazol-2-yl)propanamide] | 21 | 82
3 | CC(C)(C(=O)Nc1nncs1)C(c1ccccc1)c1ccc2c(cnn2-c2ccccn2)c1 (stereo not drawn) [Example 80, 2,2-dimethyl-3-phenyl-3-(1-(pyridin-2-yl)-1H-indazol-5-yl)-N-(1,3,4-thiadiazol-2-yl)propanamide] | 8.1 | 127
4 | COCCCn1ncc2cc(C(c3ccccc3)C(C)(C)C(=O)Nc3nncs3)ccc21 (stereo not drawn) [Example 71] | 28 | > 10000
5 | CC(C)(C(=O)Nc1nncs1)C(c1ccccc1)c1ccc2c(cnn2CCCCO)c1 (stereo not drawn) [Example 76, 3-(1-(4-hydroxybutyl)-1H-indazol-5-yl)-2,2-dimethyl-3-phenyl-N-(1,3,4-thiadiazol-2-yl)propanamide] | 9.3 | 267
6 | CC(C)(C(=O)Nc1nncs1)C(c1ccccc1)c1ccc2c(cnn2-c2ccccc2)c1 (stereo not drawn) [Example 87, 2,2-dimethyl-3-phenyl-3-(1-phenyl-1H-indazol-5-yl)-N-(1,3,4-thiadiazol-2-yl)propanamide] | 5 | 20
7 | CC(C)(C(=O)Nc1nncs1)C(c1ccccc1)c1ccc2c(cnn2CCO)c1 (stereo not drawn) [Example 65, 3-(1-(2-hydroxyethyl)-1H-indazol-5-yl)-2,2-dimethyl-3-phenyl-N-(1,3,4-thiadiazol-2-yl)propanamide] | 47 | 550
8 | CC(C)(C(=O)Nc1nccs1)C(c1ccccc1)c1ccc2[nH]c(-c3ccncc3)cc2c1 (stereo not drawn) [Example 115, 2,2-dimethyl-3-phenyl-3-(2-(pyridin-4-yl)-1H-indol-5-yl)-N-(thiazol-2-yl)propanamide] | 26 | 3640
9 | Cc1nnc(NC(=O)C(C)(C)C(c2ccccc2)c2ccc3c(cnn3-c3ccc(F)cc3)c2)s1 (stereo not drawn) [Example 18, 3-(1-(4-fluorophenyl)-1H-indazol-5-yl)-2,2-dimethyl-N-(5-methyl-1,3,4-thiadiazol-2-yl)-3-phenylpropanamide] | 21 | 141
10 | CC(C)(C(=O)NCC(F)(F)F)C(c1ccccc1)c1ccc2c(cnn2-c2ccc(F)cc2)c1 (stereo not drawn) [Example 8, 3-(1-(4-fluorophenyl)-1H-indazol-5-yl)-2,2-dimethyl-3-phenyl-N-(2,2,2-trifluoroethyl)prop-anamide] | 3 | 1800
11 | CC(C)(C(=O)Nc1nccs1)C(c1ccccc1)c1cnc2c(cnn2-c2ccccc2)c1 (stereo not drawn) [Example 162, 2,2-dimethyl-3-phenyl-3-(1-phenyl-1H-pyrazolo[3,4-b]pyridin-5-yl)-N-(thiazol-2-yl)propanamide] | 3.6 | 3560
12 | CC(C)(C(=O)Nc1nncs1)C(c1ccccc1)c1ccc2c(cnn2CS(C)(=O)=O)c1 (stereo not drawn) [Example 64, 2,2-dimethyl-3-(1-(methylsulfonylmethyl)-1H-indazol-5-yl)-3-phenyl-N-(1,3,4-thiadiazol-2-yl)propanamide] | 65 | > 10000
13 | CC(C)(C(=O)Nc1nccs1)C(c1ccccc1)c1ccc2[nH]ncc2c1 (stereo not drawn) [Example 29, 3-(1H-Indazol-5-yl)-2,2-dimethyl-3-phenyl-N-(thiazol-2-yl)propanamide] | 7.8 | 126
14 | CC(C)(C(=O)Nc1nnc(C2CC2)s1)C(c1ccccc1)c1ccc2c(cnn2-c2ccc(F)cc2)c1 (stereo not drawn) [Example 21, N-(5-cyclopropyl-1,3,4-thiadiazol-2-yl)-3-(1-(4-fluorophenyl)-1H-indazole-5-yl)-2,2-dimethyl-3-phenylpropanamide] | 12 | 155
15 | CC(C)(C(=O)Nc1nncs1)C(c1ccccc1)c1ccc2c(cnn2-c2ccc(F)cc2C(F)(F)F)c1 (stereo not drawn) [Example 92, 3-(1-(4-fluoro-2-(trifluoromethyl)phenyl)-1H-indazol-5-yl)-2,2-dimethyl-3-phenyl-N-(1,3,4-thiadiazol-2-yl)proponamide] | 110 | > 10000
16 | CC(C)(C(=O)Nc1nncs1)C(C)(C)c1ccc2c(cnn2-c2ccc(F)cc2)c1 [Example 120, 3-(1-(4-fluorophenyl)-1H-indazol-5-yl)-2,2,3-trimethyl-N-(1,3,4-thiadiazol-2-yl)butanamide] | 5.8 | 74
17 | O=C(Nc1nccs1)C1CC1c1ccc2c(cnn2-c2ccc(F)cc2)c1 (stereo not drawn) [Example 103, 2-(1-(4-Fluorophenyl)-1H-indazol-5-yl)-N-(thiazol-2-yl)cyclopropanecarboxamide] | 248 | > 10000
18 | CCOC(=O)c1csc(NC(=O)C(C)(C)C(c2ccccc2)c2ccc3c(cnn3-c3ccc(F)cc3)c2)n1 (stereo not drawn) [Example 27, ethyl 2-(3-(1-(4-fluorophenyl)-1H-indazol-5-yl)-2,2-dimethyl-3-phenylpropanamido)thiazol-4-carboxylate] | 23 | 1310
19 | CC(C)n1cc2cc(C(c3ccccc3)C(C)(C)C(=O)Nc3nccs3)ccc2n1 (stereo not drawn) [Example 62] | 9 | 6150
20 | CC(C)(C(=O)Nc1nccs1)C(c1ccccc1)c1ccc2c(cnn2C2CCOCC2)c1 (stereo not drawn) [Example 58, 2,2-dimethyl-3-phenyl-3-(1-(tetrahydro-2H-pyran-4-yl)-1H-indazol-5-yl)-N-(thiazol-2-yl)propanamide] | 10 | 177
21 | CC(C)(C(=O)Nc1nncs1)C(c1ccccc1)c1ccc2c(cnn2-c2ccc(O)cc2)c1 (stereo not drawn) [Example 84, 3-(1-(4-hydroxyphenyl)-1H-indazol-5-yl)-2,2-dimethyl-3-phenyl-N-(1,3,4-thiadiazol-2-yl)propanamide] | 7.2 | 306
22 | CC(C)(C(=O)Nc1nccs1)C(c1ccccc1)c1ccc2[nH]c(-c3ccccn3)cc2c1 (single isomer, unassigned) [111-enant A, 2,2-Dimethyl-3-phenyl-3-(2-(pyridin-2-yl)-1H-indol-5-yl)-N-(thiazol-2-yl)propanamide] | 73 | 1090
23 | CC(C)(C(=O)Nc1nccs1)C(c1ccccc1)c1ccc2c(cnn2CS(C)(=O)=O)c1 (stereo not drawn) [Example 60, 2,2-dimethyl-3-(1-(methylsulfonylmethyl)-1H-indazol-5-yl)-3-phenyl-N-(thiazol-2-yl)propanamide] | 29 | > 10000
24 | CC(C)(C(=O)Nc1nncs1)C(c1ccccc1)c1ccc2c(cnn2-c2ccc(Cl)cc2)c1 (stereo not drawn) [Example 93, 3-(1-(4-chlorophenyl)-1H-indazol-5-yl)-2,2-dimethyl-3-phenyl-N-(1,3,4-thiadiazol-2-yl)propanamide] | 18 | 32
25 | COc1ccc(-n2ncc3cc(C(c4ccccc4)C(C)(C)C(=O)Nc4nncs4)ccc32)cc1 (stereo not drawn) [Example 83, 3-(1-(4-methoxyphenyl)-1H-indazol-5-yl)-2,2-dimethyl-3-phenyl-N-(1,3,4-thiadiazol-2-yl)propanamide] | 8.8 | 230
26 | CC(C)(C(=O)Nc1nncs1)C(c1ccccc1)c1ccc2c(cnn2-c2ccc(C(F)(F)F)cc2)c1 (stereo not drawn) [Example 90, 2,2-dimethyl-3-phenyl-N-(1,3,4-thiadiazol-2-yl)-3-(1-(4-(trifluoro-methyl)phenyl)-1H-indazol-5-yl)propanamide] | 85 | > 10000
27 | CC(C)(C(=O)Nc1nncs1)C(c1ccccc1)c1ccc2[nH]c(-c3ccncc3)cc2c1 (stereo not drawn) [Example 116, 2,2-dimethyl-3-phenyl-3-(2-(pyridin-4-yl)-1H-indol-5-yl)-N-(1,3,4-thiadiazol-2-yl)propanamide] | 43 | 3260
